# Experimental data taken from the supplement of paper PMC10307832.
# Assays:
# Test in all cases: relative viability (nuclei count vs DMSO), 5 days (fraction); higher = more cells survive
# CAP-232 + Trametinib = compound: C[C@H]([C@@H](C(=O)N)NC(=O)[C@@H]1CSSC[C@@H](C(=O)N[C@H](C(=O)N[C@@H](C(=O)N[C@H](C(=O)N1)CCCCN)CC2=CNC3=CC=CC=C32)CC4=CC=C(C=C4)O)NC(=O)[C@@H](CC5=CC=CC=C5)N)O [CAP-232] + CC(=O)Nc1cccc(-n2c(=O)n(C3CC3)c(=O)c3c(Nc4ccc(I)cc4F)n(C)c(=O)c(C)c32)c1 [Trametinib] (partner 0.02 µM)
# Procedure, shortened: (§1)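 For relative viability, nuclei counts in treated wells were divided by those in vehicle wells. Lung cancer cell lines had been pin-tool dosed in 1536-well plates the day after seeding and cultured for 5 days, then fixed and stained in one step (final 0.05% Triton X-100, 1% formaldehyde, 1 ug/ml Hoechst) and imaged at 4×. Doses were one drug alone or a fixed anchor-drug dose plus five library-drug doses (not always all listed) in √10 steps, and values are duplicate-plate medians.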
# CAP-232 + Pictilisib = compound: C[C@H]([C@@H](C(=O)N)NC(=O)[C@@H]1CSSC[C@@H](C(=O)N[C@H](C(=O)N[C@@H](C(=O)N[C@H](C(=O)N1)CCCCN)CC2=CNC3=CC=CC=C32)CC4=CC=C(C=C4)O)NC(=O)[C@@H](CC5=CC=CC=C5)N)O [CAP-232] + CS(=O)(=O)N1CCN(Cc2cc3nc(-c4cccc5[nH]ncc45)nc(N4CCOCC4)c3s2)CC1 [Pictilisib] (partner 1 µM)
# Procedure, shortened: as §1
# CAP-232 + Crizotinib = compound: C[C@H]([C@@H](C(=O)N)NC(=O)[C@@H]1CSSC[C@@H](C(=O)N[C@H](C(=O)N[C@@H](C(=O)N[C@H](C(=O)N1)CCCCN)CC2=CNC3=CC=CC=C32)CC4=CC=C(C=C4)O)NC(=O)[C@@H](CC5=CC=CC=C5)N)O [CAP-232] + C[C@@H](Oc1cc(-c2cnn(C3CCNCC3)c2)cnc1N)c1c(Cl)ccc(F)c1Cl [Crizotinib] (partner 1 µM)
# Procedure, shortened: as §1
# CAP-232 + AZD7762 = compound: C[C@H]([C@@H](C(=O)N)NC(=O)[C@@H]1CSSC[C@@H](C(=O)N[C@H](C(=O)N[C@@H](C(=O)N[C@H](C(=O)N1)CCCCN)CC2=CNC3=CC=CC=C32)CC4=CC=C(C=C4)O)NC(=O)[C@@H](CC5=CC=CC=C5)N)O [CAP-232] + NC(=O)Nc1cc(-c2cccc(F)c2)sc1C(=O)N[C@H]1CCCNC1 [AZD7762] (partner 0.2 µM)
# Procedure, shortened: as §1
# CAP-232 + Olaparib = compound: C[C@H]([C@@H](C(=O)N)NC(=O)[C@@H]1CSSC[C@@H](C(=O)N[C@H](C(=O)N[C@@H](C(=O)N[C@H](C(=O)N1)CCCCN)CC2=CNC3=CC=CC=C32)CC4=CC=C(C=C4)O)NC(=O)[C@@H](CC5=CC=CC=C5)N)O [CAP-232] + O=C(c1cc(Cc2n[nH]c(=O)c3ccccc23)ccc1F)N1CCN(C(=O)C2CC2)CC1 [Olaparib] (partner 8 µM)
# Procedure, shortened: as §1
cell line,measurement,setting,value
EKVX,relative viability,CAP-232 + Trametinib; first compound 0.4 µM,0.583
same,relative viability,CAP-232 + Trametinib; first compound 1.265 µM,0.342
same,relative viability,CAP-232 + Trametinib; first compound 4 µM,0.268
same,relative viability,CAP-232 + Trametinib; first compound 12.65 µM,0.331
same,relative viability,CAP-232 + Pictilisib; first compound 0.4 µM,0.395
same,relative viability,CAP-232 + Pictilisib; first compound 1.265 µM,0.458
same,relative viability,CAP-232 + Pictilisib; first compound 4 µM,0.421
same,relative viability,CAP-232 + Pictilisib; first compound 12.65 µM,0.372
same,relative viability,CAP-232 + Crizotinib; first compound 0.4 µM,0.899
same,relative viability,CAP-232 + Crizotinib; first compound 1.265 µM,1.1
same,relative viability,CAP-232 + Crizotinib; first compound 4 µM,1.03
same,relative viability,CAP-232 + Crizotinib; first compound 12.65 µM,0.651
same,relative viability,CAP-232 + AZD7762; first compound 0.4 µM,0.899
same,relative viability,CAP-232 + AZD7762; first compound 1.265 µM,0.712
same,relative viability,CAP-232 + AZD7762; first compound 4 µM,0.699
same,relative viability,CAP-232 + AZD7762; first compound 12.65 µM,0.471
same,relative viability,CAP-232 + Olaparib; first compound 0.4 µM,0.901
same,relative viability,CAP-232 + Olaparib; first compound 1.265 µM,0.95
same,relative viability,CAP-232 + Olaparib; first compound 4 µM,0.993
same,relative viability,CAP-232 + Olaparib; first compound 12.65 µM,0.804
A-427,relative viability,CAP-232 + Trametinib; first compound 0.4 µM,0.615
same,relative viability,CAP-232 + Trametinib; first compound 1.265 µM,0.716
same,relative viability,CAP-232 + Trametinib; first compound 4 µM,0.795
same,relative viability,CAP-232 + Trametinib; first compound 12.65 µM,0.684
same,relative viability,CAP-232 + Pictilisib; first compound 0.4 µM,0.508
same,relative viability,CAP-232 + Pictilisib; first compound 1.265 µM,0.654
same,relative viability,CAP-232 + Pictilisib; first compound 4 µM,0.842
same,relative viability,CAP-232 + Pictilisib; first compound 12.65 µM,0.853
same,relative viability,CAP-232 + Crizotinib; first compound 0.4 µM,0.881
same,relative viability,CAP-232 + Crizotinib; first compound 1.265 µM,0.913
same,relative viability,CAP-232 + Crizotinib; first compound 4 µM,0.908
same,relative viability,CAP-232 + Crizotinib; first compound 12.65 µM,0.93
same,relative viability,CAP-232 + AZD7762; first compound 0.4 µM,0.72
same,relative viability,CAP-232 + AZD7762; first compound 1.265 µM,0.754
same,relative viability,CAP-232 + AZD7762; first compound 4 µM,0.811
same,relative viability,CAP-232 + AZD7762; first compound 12.65 µM,0.746
same,relative viability,CAP-232 + Olaparib; first compound 0.4 µM,0.813
same,relative viability,CAP-232 + Olaparib; first compound 1.265 µM,0.646
same,relative viability,CAP-232 + Olaparib; first compound 4 µM,0.808
same,relative viability,CAP-232 + Olaparib; first compound 12.65 µM,0.814
ChaGo-K-1,relative viability,CAP-232 + Trametinib; first compound 0.4 µM,0.867
same,relative viability,CAP-232 + Trametinib; first compound 1.265 µM,0.892
same,relative viability,CAP-232 + Trametinib; first compound 4 µM,1.01
same,relative viability,CAP-232 + Trametinib; first compound 12.65 µM,0.93
same,relative viability,CAP-232 + Pictilisib; first compound 0.4 µM,1
same,relative viability,CAP-232 + Pictilisib; first compound 1.265 µM,0.51
same,relative viability,CAP-232 + Pictilisib; first compound 4 µM,0.703
same,relative viability,CAP-232 + Pictilisib; first compound 12.65 µM,0.256
same,relative viability,CAP-232 + Crizotinib; first compound 0.4 µM,1.22
same,relative viability,CAP-232 + Crizotinib; first compound 1.265 µM,1.17
same,relative viability,CAP-232 + Crizotinib; first compound 4 µM,1.41
same,relative viability,CAP-232 + Crizotinib; first compound 12.65 µM,0.833
same,relative viability,CAP-232 + AZD7762; first compound 0.4 µM,0.869
same,relative viability,CAP-232 + AZD7762; first compound 1.265 µM,0.868
same,relative viability,CAP-232 + AZD7762; first compound 4 µM,0.916
same,relative viability,CAP-232 + AZD7762; first compound 12.65 µM,0.817
same,relative viability,CAP-232 + Olaparib; first compound 0.4 µM,0.425
same,relative viability,CAP-232 + Olaparib; first compound 1.265 µM,0.428
same,relative viability,CAP-232 + Olaparib; first compound 4 µM,0.456
same,relative viability,CAP-232 + Olaparib; first compound 12.65 µM,0.421
LCLC-97TM1,relative viability,CAP-232 + Trametinib; first compound 0.4 µM,0.143
same,relative viability,CAP-232 + Trametinib; first compound 1.265 µM,0.184
same,relative viability,CAP-232 + Trametinib; first compound 4 µM,0.154
same,relative viability,CAP-232 + Trametinib; first compound 12.65 µM,0.188
same,relative viability,CAP-232 + Pictilisib; first compound 0.4 µM,0.217
same,relative viability,CAP-232 + Pictilisib; first compound 1.265 µM,0.193
same,relative viability,CAP-232 + Pictilisib; first compound 4 µM,0.232
same,relative viability,CAP-232 + Pictilisib; first compound 12.65 µM,0.193
same,relative viability,CAP-232 + Crizotinib; first compound 0.4 µM,0.494
same,relative viability,CAP-232 + Crizotinib; first compound 1.265 µM,0.347
same,relative viability,CAP-232 + Crizotinib; first compound 4 µM,0.28
same,relative viability,CAP-232 + Crizotinib; first compound 12.65 µM,0.315
same,relative viability,CAP-232 + AZD7762; first compound 0.4 µM,0.442
same,relative viability,CAP-232 + AZD7762; first compound 1.265 µM,0.238
same,relative viability,CAP-232 + AZD7762; first compound 4 µM,0.341
same,relative viability,CAP-232 + AZD7762; first compound 12.65 µM,0.429
same,relative viability,CAP-232 + Olaparib; first compound 0.4 µM,0.418
same,relative viability,CAP-232 + Olaparib; first compound 1.265 µM,0.421
same,relative viability,CAP-232 + Olaparib; first compound 4 µM,0.346
same,relative viability,CAP-232 + Olaparib; first compound 12.65 µM,0.438
NCI-H2170,relative viability,CAP-232 + Trametinib; first compound 0.4 µM,0.977
same,relative viability,CAP-232 + Trametinib; first compound 1.265 µM,0.918
same,relative viability,CAP-232 + Trametinib; first compound 4 µM,1.05
same,relative viability,CAP-232 + Trametinib; first compound 12.65 µM,1.08
same,relative viability,CAP-232 + Pictilisib; first compound 0.4 µM,0.257
same,relative viability,CAP-232 + Pictilisib; first compound 1.265 µM,0.275
same,relative viability,CAP-232 + Pictilisib; first compound 4 µM,0.259
same,relative viability,CAP-232 + Pictilisib; first compound 12.65 µM,0.286
same,relative viability,CAP-232 + Crizotinib; first compound 0.4 µM,1.24
same,relative viability,CAP-232 + Crizotinib; first compound 1.265 µM,1.22
same,relative viability,CAP-232 + Crizotinib; first compound 4 µM,1.23
same,relative viability,CAP-232 + Crizotinib; first compound 12.65 µM,0.901
same,relative viability,CAP-232 + AZD7762; first compound 0.4 µM,0.915
same,relative viability,CAP-232 + AZD7762; first compound 1.265 µM,0.907
same,relative viability,CAP-232 + AZD7762; first compound 4 µM,0.906
same,relative viability,CAP-232 + AZD7762; first compound 12.65 µM,0.846
same,relative viability,CAP-232 + Olaparib; first compound 0.4 µM,0.622
same,relative viability,CAP-232 + Olaparib; first compound 1.265 µM,0.588
same,relative viability,CAP-232 + Olaparib; first compound 4 µM,0.738
same,relative viability,CAP-232 + Olaparib; first compound 12.65 µM,0.636
NCI-H1993,relative viability,CAP-232 + Trametinib; first compound 0.4 µM,0.443
same,relative viability,CAP-232 + Trametinib; first compound 1.265 µM,0.491
same,relative viability,CAP-232 + Trametinib; first compound 4 µM,0.589
same,relative viability,CAP-232 + Trametinib; first compound 12.65 µM,0.429
same,relative viability,CAP-232 + Pictilisib; first compound 0.4 µM,0.887
same,relative viability,CAP-232 + Pictilisib; first compound 1.265 µM,0.935
same,relative viability,CAP-232 + Pictilisib; first compound 4 µM,0.977
same,relative viability,CAP-232 + Pictilisib; first compound 12.65 µM,0.768
same,relative viability,CAP-232 + Crizotinib; first compound 0.4 µM,0.884
same,relative viability,CAP-232 + Crizotinib; first compound 1.265 µM,0.95
same,relative viability,CAP-232 + Crizotinib; first compound 4 µM,0.885
same,relative viability,CAP-232 + Crizotinib; first compound 12.65 µM,0.835
same,relative viability,CAP-232 + AZD7762; first compound 0.4 µM,0.756
same,relative viability,CAP-232 + AZD7762; first compound 1.265 µM,0.702
same,relative viability,CAP-232 + AZD7762; first compound 4 µM,0.694
same,relative viability,CAP-232 + AZD7762; first compound 12.65 µM,0.633
same,relative viability,CAP-232 + Olaparib; first compound 0.4 µM,1.32
same,relative viability,CAP-232 + Olaparib; first compound 1.265 µM,1.14
same,relative viability,CAP-232 + Olaparib; first compound 4 µM,0.933
same,relative viability,CAP-232 + Olaparib; first compound 12.65 µM,1.08
NCI-H460,relative viability,CAP-232 + Trametinib; first compound 0.4 µM,0.134
same,relative viability,CAP-232 + Trametinib; first compound 1.265 µM,0.208
same,relative viability,CAP-232 + Trametinib; first compound 4 µM,0.165
same,relative viability,CAP-232 + Trametinib; first compound 12.65 µM,0.0175
same,relative viability,CAP-232 + Pictilisib; first compound 0.4 µM,0.328
same,relative viability,CAP-232 + Pictilisib; first compound 1.265 µM,0.306
same,relative viability,CAP-232 + Pictilisib; first compound 4 µM,0.433
same,relative viability,CAP-232 + Pictilisib; first compound 12.65 µM,0.349
same,relative viability,CAP-232 + Crizotinib; first compound 0.4 µM,0.924
same,relative viability,CAP-232 + Crizotinib; first compound 1.265 µM,1.1
same,relative viability,CAP-232 + Crizotinib; first compound 4 µM,1.05
same,relative viability,CAP-232 + Crizotinib; first compound 12.65 µM,0.534
same,relative viability,CAP-232 + AZD7762; first compound 0.4 µM,0.856
same,relative viability,CAP-232 + AZD7762; first compound 1.265 µM,0.58
same,relative viability,CAP-232 + AZD7762; first compound 4 µM,0.734
same,relative viability,CAP-232 + AZD7762; first compound 12.65 µM,0.416
same,relative viability,CAP-232 + Olaparib; first compound 0.4 µM,0.515
same,relative viability,CAP-232 + Olaparib; first compound 1.265 µM,0.384
same,relative viability,CAP-232 + Olaparib; first compound 4 µM,0.526
same,relative viability,CAP-232 + Olaparib; first compound 12.65 µM,0.332
